This experiment concerns the target T1, Neutrophil Lipoxygenase (Cavia porcellus, UniProt A0A286X958).
T1 construct: endogenous in cells; host or cells: guinea pig peritoneal neutrophils
T1 sequence (A0A286X958 1-674): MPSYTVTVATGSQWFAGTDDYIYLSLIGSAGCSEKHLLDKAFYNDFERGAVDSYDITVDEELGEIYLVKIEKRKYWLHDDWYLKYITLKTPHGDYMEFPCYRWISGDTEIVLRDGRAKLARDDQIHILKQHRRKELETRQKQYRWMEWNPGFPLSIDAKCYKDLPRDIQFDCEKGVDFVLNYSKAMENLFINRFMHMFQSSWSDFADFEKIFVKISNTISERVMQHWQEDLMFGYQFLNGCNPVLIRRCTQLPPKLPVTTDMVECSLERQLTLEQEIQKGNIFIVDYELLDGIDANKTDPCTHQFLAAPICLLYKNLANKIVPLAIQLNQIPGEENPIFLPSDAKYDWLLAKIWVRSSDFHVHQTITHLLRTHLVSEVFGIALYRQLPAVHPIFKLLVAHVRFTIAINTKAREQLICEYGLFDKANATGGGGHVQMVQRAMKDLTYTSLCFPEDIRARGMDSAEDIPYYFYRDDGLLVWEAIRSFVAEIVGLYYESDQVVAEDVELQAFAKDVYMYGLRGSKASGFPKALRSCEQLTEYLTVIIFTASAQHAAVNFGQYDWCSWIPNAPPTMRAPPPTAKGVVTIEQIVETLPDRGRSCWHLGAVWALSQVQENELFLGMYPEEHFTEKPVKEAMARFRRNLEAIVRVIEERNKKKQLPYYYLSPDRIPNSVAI
Briefly: Inhibition of Neutrophil Lipoxygenase from Immunologically Stimulated Guinea Pig Neutrophiles (LTB4 and 5-HETE). In kind it is cell-based. Conditions: 10 μg/ml, 100 μM arachidonic acid and 20 μM A23187, the lower the percentage, the more active. The method, then:
In this assay 3×10^7 peritoneal neutrophils derived from guinea pigs were incubated at 37° C. in Dulbeccos buffer containing 50 mM tris buffer (pH 7.4). Five minutes before the addition of 100 μM arachidonic acid and 20 μM calcium ionophore (A23187), control vehicle or the test compounds were added to the neutrophils at a concentration of 10 μg/ml. Three minutes after the addition of arachidonic acid and calcium ionophore the total lipid was partitioned into chloroform after adjusting the pH to 3 with citric acid and the addition of equal parts of methanol and chloroform. The 5-HETE and LTB4 were resolved by HPLC using a 5 μM, 4×25 cm octadecyl silica column (IBM Instruments) with 70-80% methanol in water adjusted to pH 3.0 with acetic acid. As the mobile phase was pumped at 1.0 ml/minute, LTB4 and 5-HETE were detected by absorbance at 270 and 236 nm, respectively. LTB4 and 5-HETE were quantitated by comparison with the control and the results were expressed as a percent of control.

Where a name gives a salt, the structure may show the parent alone. Read-outs that look alike come from different tables or passages of the source.

For the compound `O=C1C(Cl)=C(N2CCN(c3ccc4ccccc4n3)CC2)C(=O)c2ccccc21` [Example 10, 2-chloro-3-[4-(2-quinolinyl)-1-piperazinyl]-1,4-naphthalenedione, hydrochloride], the remaining activity at 10 µg/mL turned out to be 0% (read-out: 5-HETE, % of Control) and 0% (read-out: LTB4, % of Control). For the compound `O=C1C(Cl)=C(N2CCN(Cc3ccc4c(c3)OCO4)CC2)C(=O)c2ccccc21` [Example 11, 2-[4-(1,3-benzodioxol-5-ylmethyl)-1-piperazinyl]-3-chloro-1,4-naphthalenedione, hydrochloride], the remaining activity at 10 µg/mL is, setting by setting: (read-out: 5-HETE, % of Control) 0%; (read-out: LTB4, % of Control) 0%. For the compound `O=C1C(Cl)=C(N2CCN(c3ncccn3)CC2)C(=O)c2ccccc21` [Example 12, 2-chloro-3-[4-(2-pyrimidinyl)-1-piperazinyl]-1,4-naphthalenedione], the remaining activity at 10 µg/mL (read-out: 5-HETE, % of Control) was determined as 34.3%. `CC(=O)NC1=C(N2CCN(c3nc4ccccc4s3)CC2)C(=O)c2ccccc2C1=O` [Example 23, N-[3-[4-(2-benzothiazolyl)-1-piperazinyl]-1,4-dihydro-1,4-dioxo-2-naphthalenyl]acetamide]: the remaining activity at 10 µg/mL is, setting by setting: (read-out: 5-HETE, % of Control) 0%; (read-out: LTB4, % of Control) 0%. For `CC(=O)NC1=C(N2CCN(c3cccc(C(F)(F)F)c3)CC2)C(=O)c2ccccc2C1=O` [Example 28, N-[1,4-dihydro-1,4-dioxo-3-[4-[3-(trifluoromethyl)phenyl]-1-piperazinyl]-2-naphthalenyl]acetamide], the remaining activity at 10 µg/mL (read-out: 5-HETE, % of Control) was determined as 0.3%. `O=C1C(Cl)=C(N2CCN(C(=O)Nc3ccccc3Cl)CC2)C(=O)c2ccccc21` [Example 29, 4-(3-Chloro-1,4-dihydro-1,4-dioxo-2-naphthalenyl)-N-(2-chlorophenyl)-1-piperazinecarboxamide]: the remaining activity at 10 µg/mL amounted to 19.9% (read-out: 5-HETE, % of Control) and 22.2% (read-out: LTB4, % of Control). In the case of `O=C1C(Cl)=C(N2CCN(C(=O)Nc3ccccc3F)CC2)C(=O)c2ccccc21` [Example 30, 4-(3-chloro-1,4-dihydro-1,4-dioxo-2-naphthalenyl)-N-(2-fluorophenyl)-1-piperazinecarboxamide], the remaining activity at 10 µg/mL turned out to be 2% (read-out: 5-HETE, % of Control) and 0% (read-out: LTB4, % of Control).

For the compound `O=C1C(Cl)=C(N2CCN(C(=O)Nc3cccc(C(F)(F)F)c3)CC2)C(=O)c2ccccc21` [Example 31, 4-(3-chloro-1,4-dihydro-1,4-dioxo-2-naphthalenyl)-N-[3-(trifluoromethyl)phenyl]-1-piperazinecarboxamide], under “read-out: 5-HETE, % of Control”, the remaining activity at 10 µg/mL worked out at 0%. As to `O=C1C(Cl)=C(N2CCN(C(=O)Nc3ccc(Cl)cc3)CC2)C(=O)c2ccccc21` [Example 32, 4-(3-chloro-1,4-dihydro-1,4-dioxo-2-naphthalenyl)-N-(4-chlorophenyl)-1-piperazinecarboxamide], the remaining activity at 10 µg/mL (read-out: 5-HETE, % of Control) was determined as 1.4%. For the compound `CCCCc1ccc(C(=O)N2CCN(C3=C(Cl)C(=O)c4ccccc4C3=O)CC2)cc1` [Example 35, 1-(4-butylbenzoyl)-4-(3-chloro-1,4-dihydro-1,4-dioxo-2-naphthalenyl)piperazine], the remaining activity at 10 µg/mL runs as follows: (read-out: 5-HETE, % of Control) 13.7%; (read-out: LTB4, % of Control) 23.2%.

As for `CCOC(=O)N1CCN(C2=C(C)C(=O)c3ccccc3C2=O)CC1` [Example 41, 4-(1,4-Dihydro-3-methyl-1,4-dioxo-2-naphthalenyl)-1-piperazinecarboxylic acid, ethyl ester], where the note is “read-out: 5-HETE, % of Control”, the remaining activity at 10 µg/mL is 2.2%.

For the compound `CC1=C(N2CCN(c3nc4ccccc4s3)CC2)C(=O)c2ccccc2C1=O` [Example 42, 2-[4-(2-benzothiazolyl)-1-piperazinyl]-3-methyl-1,4-naphthalenedione], the remaining activity at 10 µg/mL turned out to be 0.8% (read-out: 5-HETE, % of Control) and 20.8% (read-out: LTB4, % of Control). In the case of `CC1=C(N2CCN(Cc3ccccc3)CC2)C(=O)c2ccccc2C1=O` [Example 43, 2-methyl-3-[4-(phenylmethyl)-1-piperazinyl]-1,4-naphthalenedione], the remaining activity at 10 µg/mL runs as follows: (read-out: 5-HETE, % of Control) 0.7%; (read-out: LTB4, % of Control) 4.8%. For the compound `CC1=C(N2CCN(c3ccccn3)CC2)C(=O)c2ccccc2C1=O` [Example 44, 2-methyl-3-[4-(2-pyridinyl)-1-piperazinyl]-1,4-naphthalenedione], the remaining activity at 10 µg/mL (read-out: 5-HETE, % of Control) is 0% and the remaining activity at 10 µg/mL (read-out: LTB4, % of Control) was found to be 0%. Turning to `CC1=C(N2CCN(c3cccc(C(F)(F)F)c3)CC2)C(=O)c2ccccc2C1=O` [Example 45, 2-methyl-3-[4-[3-(trifluoromethyl)phenyl]-1-piperazinyl]-1,4-naphthalenedione], where the note is “read-out: 5-HETE, % of Control”, the remaining activity at 10 µg/mL was 0%. The same measure, in the same setting: next, `O=C1C(Cl)=C(N2CCCN(c3nc4ccccc4s3)CC2)C(=O)c2ccccc21` [Example 52, 2-[4-(2-Benzothiazolyl)hexahydro-1H-diazepin-1-yl]-3-chloro-1,4-naphthalenedione]: 1.1%; `CC1=C(N2CCN(C(=O)Nc3ccc(Cl)cc3)CC2)C(=O)c2ccccc2C1=O` [Example 54, N-(4-Chlorophenyl)-4-(1,4-dihydro-3-methyl-1,4-dioxo-2-naphthalenyl)-1-piperazinecarboxamide]: 8.8%. Turning to `O=C1C(Cl)=C(N2CCN(c3nc4ccccc4o3)CC2)C(=O)c2ccccc21` [Example 55, 2-[4-(2-Benzoxazolyl)-1-piperazinyl]-3-chloro-1,4-naphthalenedione], the remaining activity at 10 µg/mL (read-out: 5-HETE, % of Control) is 19.6% and the remaining activity at 10 µg/mL (read-out: LTB4, % of Control) amounted to 13.5%. On to `CC1CN(C2=C(Cl)C(=O)c3ccccc3C2=O)CCN1C(=O)Nc1cccc(Cl)c1` (stereo not drawn) [Example 58, 4-(3-Chloro-1,4-dihydro-1,4-dioxo-2-naphthalenyl)-N-(3-chlorophenyl)-2-methyl-1-piperazinecarboxamide], for which the remaining activity at 10 µg/mL stood at 25.7% (read-out: 5-HETE, % of Control) and 15.2% (read-out: LTB4, % of Control).

Values taken from patent publication US4686220A, “Substituted 2-[b-substituted-amino)-ethylamino]-1,4-naphthalenediones for treating asthma, allergic diseases and inflammation in warm-blooded animals” (American Cyanamid Company, priority 1985, dated 1987).
